The subject of series [1] is human MKL-1 MCC xenografts. Here is the method:
Compounds were dissolved in sterile 0.9% saline solution for administration to animals.
Six-week-old female triple immune-deficient NSG (Nod-SCID gamma) mice (Jackson Laboratory) were maintained in a specific pathogen-free environment.
MCC cells were checked for viability >90% by trypan blue staining, resuspended in PBS (2×10^7 cells in 100 μl) and inoculated subcutaneously into the right flank of mice.
All treatments were delivered for three consecutive weeks. […] YM-155 (2 mg/kg) was given intraperitoneally on five consecutive days, followed by a two-day treatment free interval.
Two-tailed paired Student's t test was used to analyze statistical differences in qRT-PCR results. Mouse survival curves were estimated using the Kaplan-Meier product-limit method and were compared using the log-rank test (GraphPad Software, La Jolla, Calif.). A piecewise linear hierarchical Bayesian model (Zhao et al., Bayesian hierarchical changepoint methods in modeling the tumor growth profiles in xenograft experiments. Clinical Cancer Res 17, 1057 (Mar. 1, 2011)) was used to characterize differences in tumor volumes and growth between treatments.
Cells of Merkel cell polyomavirus (+) carcinoma cell lines MKL-1, MS-1, WaGa, and MKL-2 were checked for viability >90% by trypan blue staining, resuspended in PBS (2×10^7 cells in 100 μl) and inoculated subcutaneously into the right flank of mice.
YM-155 was given intraperitoneally on five consecutive days, followed by a two-day treatment free interval. For YM155 this treatment continued for three weeks or until mice were euthanized. Mice were euthanized upon showing a tumor having a diameter of 20 mm, or upon a showing of significant distress (>20% weight loss or when they became moribund). Caliper measurements of the longest perpendicular tumor diameters were performed every other day and tumor volumes were calculated using the formula: (width)^2×(length/2). Survival was defined as time from the first day of treatment until death/sacrifice.

In another series the test system is MCC cell lines. The experiment in a line: cells. The conditions noted are these: Homo sapiens, read-out: EC50, active in vitro at low doses. As for the experimental part: (§1) Serial drug dilutions from 10^−4 M to 10^−9 M were used on MCC and non-MCC cell lines. Cells were seeded into 384-well plates at 6000 cells in 50 μl of medium per well. After 24 hours, 25 μl of 3× drugs were added at increasing concentration to each well. Cell viability was then measured using Cell Titer Glo (Promega) kit following manufacturer's instructions as described previously. Each drug concentration was tested in triplicate for each cell line and experiments were repeated twice. EC50 doses for the drugs were calculated using a four parameter logistic equation (GraphPad Prism).

Series [2] concerns MKL-1 cells. The experiment in a line: Immunoblotting for cPARP, cCaspase 3 and LC3. It counts as cell-based, human. The conditions noted are these: 100 nM, 48 hours. (Immunoblotting shows a protein as a band on a membrane.)
In another series the test system is MS-1. The experiment in a line: Cell Titer Glo dose-response study. Type of series: cell-based, human. The conditions noted are these: Homo sapiens, MS-1, read-out: EC50 concentrations for MCC cell lines, MS-1.
Excerpt: (§2) Seven Merkel cell carcinoma cell lines: MKL-1, MKL-2, MS-1, UISO, MCC13, MCC26 and WaGa (kind gift of Jurgen Becker (Houben et al., Merkel cell polyomavirus-infected Merkel cell carcinoma cells require expression of viral T antigens. J Virol 84, 7064 (July, 2010); Ronan et al., Merkel cell carcinoma: in vitro and in vivo characteristics of a new cell line. J Am Acad Dermatol 29, 715 (November, 1993); Rosen et al., Establishment and characterization of a neuroendocrine skin carcinoma cell line. Lab Invest 56, 302 (March, 1987)); NCI-H69 small cell lung cancer cell line (ATCC); 293 human embryonic kidney cells (ATCC); U2OS osteosarcoma cell line (kind gift of Ole Gjoerup); BJhTERT immortalized foreskin fibroblast cell line (kind gift of Ole Gjoerup); and BJ primary foreskin fibroblasts (ATCC) were used to screen and evaluate the small molecules examined in this study (Houben et al., J Virol 84, 7064 (July, 2010); Ronan et al., J Am Acad Dermatol 29, 715 (November, 1993); Rosen et al., Lab Invest 56, 302 (March, 1987)). The Merkel cell lines and NCI-H69 were grown in RPMI 1640 supplemented with 10% fetal calf serum, penicillin and streptomycin at 37° C. in humidified air containing 5% CO2. The remaining cell lines were grown in DMEM supplemented with 10% fetal calf serum.
(§3) For EC50 measurements, dose-response curves were established for 17 drugs obtained individually in bulk stocks. Iodoacetamide (I1149), sanguarine chloride (S5890), NSC95397 (N1786), chelerythrine chloride (C2932), calmidazolium chloride (C3930), tetraethylthiuram disulfide (T1132), bay 11-7085 (B5681), quinacrine dihydro chloride (Q3251), ellipticine (E3380), amsacrine hydrochloride (A9809) and nutlin-3 (N6287) were purchased from Sigma Aldrich, USA.
as §1, with “Compounds that met the selection criteria <10% cell survival were purchased or obtained in bulk from NCI/NIH Developmental Therapeutics Program. Serial” for “Serial”
Background: In ATP-based viability assays light output follows the ATP content of the culture.

The next series concerns MKL-2. Kind of series: Cell Titer Glo dose-response study. It counts as cell-based, human. The conditions noted are these: Homo sapiens, read-out: EC50 concentrations for MCC cell lines, MKL-2.
Excerpt: as §2, §3
as §1, with “Compounds that met the selection criteria <10% cell survival were purchased or obtained in bulk from NCI/NIH Developmental Therapeutics Program. Serial” for “Serial”

The subject of a further series is UISO. Kind of series: Cell Titer Glo dose-response study. The conditions noted are these: Homo sapiens, read-out: EC50 concentrations for MCC cell lines, UISO. Type of series: cell-based, human.
Excerpt: as §2, §3
as §1, with “Compounds that met the selection criteria <10% cell survival were purchased or obtained in bulk from NCI/NIH Developmental Therapeutics Program. Serial” for “Serial”

A further series deals with MKL-1. The experiment in a line: Cell Titer Glo dose-response study. Type of series: cell-based, human. The conditions noted are these: Homo sapiens, MKL-1, read-out: EC50 concentrations for MCC cell lines, MKL-1.
Excerpt: as §2, §3
as §1, with “Compounds that met the selection criteria <10% cell survival were purchased or obtained in bulk from NCI/NIH Developmental Therapeutics Program. Serial” for “Serial”

The test system of a further series is WaGa. The experiment in a line: Cell Titer Glo dose-response study. Type of series: cell-based, human. The conditions noted are these: Homo sapiens, read-out: EC50 concentrations for MCC cell lines, WaGa.
Excerpt: as §2, §3
as §1, with “Compounds that met the selection criteria <10% cell survival were purchased or obtained in bulk from NCI/NIH Developmental Therapeutics Program. Serial” for “Serial”

Series [3] concerns MKL-1 cells. Kind of series: Cell cycle analysis (PI and BrdU staining). The conditions noted are these: 12 h, YM155 100 nM, camptothecin 1 μM. It counts as cell-based, human. As for the experimental part:
MKL-1 cells were treated with Accutase (Millipore) to break clumps and then resuspended in fresh medium containing drug and treated for 12 hours. Three hours before harvest 10 μM Bromodeoxyuridine (BrdU) was added. Cells were then harvested and fixed in chilled 70% ethanol and left overnight. The next day cells were washed, resuspended in 200 μl of 2M HCl/Triton X (1%) and incubated for 30 mins at room temperature. Cells were then centrifuged at 2000 rpm for 10 mins and neutralized in 200 μl of 0.1M sodium tetraborate, pH 8.5 solution. Cells were then washed, suspended in 20 μl of PBS containing 0.5% tween20, 1% donkey serum and 2ul of anti-BrdU antibody (1:10 diution, BD Biosciences) and incubated overnight at 4° C. Cells were then washed and incubated with secondary antibody-anti mouse Alexa488 (1:1000) for 1 hour at room temperature. Cells were finally washed, suspended in PBS containing 100 μg/ml of RNase A, 50 μg/ml of PI (propidium iodide) and 0.05% Triton X and incubated for 30 mins at 37° C. in the dark. The cells were then subjected to FACS using the accuri C6 flow cytometer (UPCI shared resources).
On the technique in general: Uptake of a labelled nucleoside into DNA is a usual measure of proliferation.

Where [4] appears, read: Example 2, 1 mg/kg for three weeks.
Where [5] appears, read: three weeks treatment, bortezomib 1 mg/kg twice weekly, YM155 2 mg/kg 5 times weekly.

As for `CC(C)C[C@H](NC(=O)[C@H](Cc1ccccc1)NC(=O)c1cnccn1)B(O)O` [Bortezomib], the “survival compared to saline” value in series [1] (setting [4]) is “survived as long as those receiving saline”. In addition, in series [1] (setting [4]), the “time after treatment began at which the last animal died” value is recorded as “approximately one month”. In addition, the “tolerability / adverse effects in mice” value in series [1] (bortezomib 1 mg/kg twice weekly, YM155 2 mg/kg 5 times weekly) is “associated with mouse lethargy and weight loss”. Also, in series [1] (setting [5]), the “mice dying during treatment (up to day 19)” value came to 67%. The “xenograft tumor growth / progression during treatment” value in series [1] (setting [5]) is listed as “did not significantly affect MCC tumor progression or volume”. The EC50 in the series with MCC cell lines is 1.3 to 13.2 nM; in the series with MS-1, 2 nM; in the series on MKL-2, 5 nM; in the series on UISO, 3 nM; with MKL-1, 13 nM; in the series on WaGa it was 1 nM. Besides, the “apoptosis measured by caspase 3 and PARP cleavage” value in the series with MKL-1 cells [2] is “activated PARP and caspase cleavage”.
Turning to `CC[C@@]1(O)C(=O)OCc2c1cc1n(c2=O)Cc2cc3ccccc3nc2-1` [camptothecin], the BrdU incorporation entry in the series on MKL-1 cells [3] was “accumulation of BrdU-positive cells in G1 and G2”.

For the origin of these results see patent US9662329B2, “Use of survivin antagonists in polyomavirus-related disease” (University of Pittsburgh—Of the Commonwealth System of …, priority 2012, dated 2017).
